# Assay results reported in patent US20230255953A1, “USE OF ROLUPERIDONE IN PREVENTING RELAPSE IN SCHIZOPHRENIA PATIENTS” (Minerva Neurosciences, Inc., priority 2022, published 2023).
# System: patients with negative symptoms of schizophrenia
# Assay: Study #1 (MIN-101C03) Phase 2b: PANSS-derived scores (PSM, NSFS, total, subscales)
# Assay type: in vivo, human
# Settings: for Change from Baseline LS Mean: 3-Factor General Psychopathology Subscale Score / Change from Baseline LS Mean: 3-Factor Negative Subscale Score / Change from Baseline LS Mean: 3-Factor Positive Subscale Score / Change from Baseline LS Mean: 5-Factor Activation Score (PSM) / Change from Baseline LS Mean: 5-Factor Autistic Preoccupation Score (PSM) / Change from Baseline LS Mean: 5-Factor Dysphoric Mood Score (PSM) / Change from Baseline LS Mean: 5-Factor Positive Score (PSM) / Change from Baseline LS Mean: NSFS (post-hoc) / Change from Baseline LS Mean: PANSS Negative Factor Score (pentagonal structure model) / Change from Baseline LS Mean: PANSS Total Score / Effect Size vs Placebo: 3-Factor General Psychopathology Subscale Score / Effect Size vs Placebo: 3-Factor Negative Subscale Score / Effect Size vs Placebo: 3-Factor Positive Subscale Score / Effect Size vs Placebo: 5-Factor Activation Score (PSM) / Effect Size vs Placebo: 5-Factor Autistic Preoccupation Score (PSM) / Effect Size vs Placebo: 5-Factor Dysphoric Mood Score (PSM) / Effect Size vs Placebo: 5-Factor Positive Score (PSM) / Effect Size vs Placebo: NSFS (post-hoc) / Effect Size vs Placebo: PANSS Negative Factor Score (pentagonal structure model) / Effect Size vs Placebo: PANSS Total Score: ITT
# From the text: “PANSS”, as used herein, refers to the positive and negative syndrome scale, which is used by physicians and clinicians to measure the severity of the symptoms in a schizophrenia patient. The scale is divided into three parts, a positive scale, which provides a “PANSS positive subscore”, a negative scale, which provides a “PANSS negative subscore”, and general psychopathology scale. The sum of these three parts provides a PANSS total score, which ranges from 30 to 210 (where higher scores indicate more severe symptoms). (Kay, S. R., et al. “The positive and negative syndrome scale (PANSS) for schizophrenia,” Schizophr Bulletin, 13(2), 261-276 (1987)).
# As used herein, PANSS Marder's negative symptoms factor score (“NSFS”), refers to selection of seven of the PANSS items used by physicians and clinicians to measure the severity of the negative symptoms in a schizophrenia patient. (See Tables 5A and 5B.) The NSFS total score ranges from 7 to 49. (Marder, S. R. et al. “The effects of risperidone on the five dimensions of schizophrenia derived by factor analysis: combined results of the North American trials,” J Clin Psychiatry. 1997; 58:538-46.)
# The PANSS was designed to be used in patients with schizophrenia to measure the overall severity of schizophrenic symptoms. The scale has been validated in different cultures and languages and is reliable and acceptable to regulatory health authorities as a primary scale to determine efficacy of intervention in schizophrenia. The name refers to the 2 types of symptoms in schizophrenia, as defined by the American Psychiatric Association: positive symptoms, which refer to an excess or distortion of normal functions (e.g., hallucinations and delusions), and negative symptoms, which represent a diminution or loss of normal functions.
# The patient is rated from 1 to 7 on 30 different symptoms based on the interview as well as reports of family members or primary care hospital workers. The original PANSS included 3 groups of symptoms and subscale scores Positive, Negative, and General Psychopathology. Since the inception of PANSS, investigators have proposed additional grouping (structures) of PANSS such as the Marder structure (Marder, S. R. et al. “Issues and perspectives in designing clinical trials for negative symptoms in schizophrenia: consensus statements,” Schizophrenia Bulletin Open. 2020; 1(1). doi:10.1093/schizbullopen/sgz001) and the White structure (White, L. et al. “Empirical assessment of the factorial structure of clinical symptoms in schizophrenia”. Psychopathology. 1997; 30263-274).
# The PANSS was assessed at the time points described in Table 4.
# The PANSS-derived endpoints used in these studies and the integrated analyses are described in Table 5A and a summary of the individual PANSS items used by physicians and clinicians to measure the severity of the symptoms in a schizophrenia patient is provided in Table 5B. The scale is divided into three parts, a positive scale, which provides a “PANSS positive subscore”, a negative scale, which provides a “PANSS negative subscore”, and general psychopathology scale. The sum of these three parts provides a PANSS total score, which ranges from 30 to 210 (where higher scores indicate more severe symptoms). (See Kay, S. R., et al. “The positive and negative syndrome scale (PANSS) for schizophrenia,” Schizophr Bulletin, 13(2), 261-276 (1987) and Gopal, S., et al. “Improvement of Negative Symptoms in Schizophrenia with Paliperidone Palmitate 1-Month and 3-Month Long-Acting Injectables: Results from a Phase 3 Non-Inferiority Study” Neuropsychiatric Disease and Treatment, 681-690, DOI: 10.2147/NDT.5226296, both of which are incorporated by reference.) […]
substance,measurement,setting,value
"1H-Isoindol-1-one,2-[ [1-[2-(4-fluorophenyl)-2-oxoethyl]-4-piperidinyl]methyl]-2,3-dihydro-, hydrochloride, hydrate (1:1:2) [Roluperidone]",Effect Size vs Placebo: 20% reduction in NSFS responders,"32 mg QD, Week 12 DB",0.06
same,Effect Size vs Placebo: 30% reduction in NSFS responders,"32 mg QD, Week 12 DB",0
same,Number of Patients with 20% reduction in NSFS at Week 12,"32 mg QD, Week 12 DB",15/51
same,Number of Patients with 30% reduction in NSFS at Week 12,"32 mg QD, Week 12 DB",2/51
same,Patients with 20% reduction in NSFS at Week 12 (%),"32 mg QD, Week 12 DB",(29%)
same,Patients with 30% reduction in NSFS at Week 12 (%),"32 mg QD, Week 12 DB",(4%)
same,Change from Baseline LS Mean: 3-Factor General Psychopathology Subscale Score,"32 mg QD, Week 12 DB",−1.07
same,Change from Baseline LS Mean: 3-Factor Negative Subscale Score,"32 mg QD, Week 12 DB",−3.35
same,Change from Baseline LS Mean: 3-Factor Positive Subscale Score,"32 mg QD, Week 12 DB",0.46
same,Change from Baseline LS Mean: 5-Factor Activation Score (PSM),"32 mg QD, Week 12 DB",−0.05
same,Change from Baseline LS Mean: 5-Factor Autistic Preoccupation Score (PSM),"32 mg QD, Week 12 DB",−0.85
same,Change from Baseline LS Mean: 5-Factor Dysphoric Mood Score (PSM),"32 mg QD, Week 12 DB",−0.32
same,Change from Baseline LS Mean: 5-Factor Positive Score (PSM),"32 mg QD, Week 12 DB",0.58
same,Change from Baseline LS Mean: NSFS (post-hoc),"32 mg QD, Week 12 DB",−3.43
same,Change from Baseline LS Mean: PANSS Negative Factor Score (pentagonal structure model),"32 mg QD, Week 12 DB",−3.07
same,Change from Baseline LS Mean: PANSS Total Score,"32 mg QD, Week 12 DB",−3.66
same,Effect Size vs Placebo: 3-Factor General Psychopathology Subscale Score,"32 mg QD, Week 12 DB",0.23
same,Effect Size vs Placebo: 3-Factor Negative Subscale Score,"32 mg QD, Week 12 DB",0.54
same,Effect Size vs Placebo: 3-Factor Positive Subscale Score,"32 mg QD, Week 12 DB",0.16
same,Effect Size vs Placebo: 5-Factor Activation Score (PSM),"32 mg QD, Week 12 DB",0.44
same,Effect Size vs Placebo: 5-Factor Autistic Preoccupation Score (PSM),"32 mg QD, Week 12 DB",0.08
same,Effect Size vs Placebo: 5-Factor Dysphoric Mood Score (PSM),"32 mg QD, Week 12 DB",0.11
same,Effect Size vs Placebo: 5-Factor Positive Score (PSM),"32 mg QD, Week 12 DB",−0.13
same,Effect Size vs Placebo: NSFS (post-hoc),"32 mg QD, Week 12 DB",0.61
same,Effect Size vs Placebo: PANSS Negative Factor Score (pentagonal structure model),"32 mg QD, Week 12 DB",0.45
same,Effect Size vs Placebo: PANSS Total Score,"32 mg QD, Week 12 DB",0.34
same,Effect Size vs Placebo: 20% reduction in NSFS responders,"64 mg QD, Week 12 DB",0.17
same,Effect Size vs Placebo: 30% reduction in NSFS responders,"64 mg QD, Week 12 DB",0.15
same,Number of Patients with 20% reduction in NSFS at Week 12,"64 mg QD, Week 12 DB",18/54
same,Number of Patients with 30% reduction in NSFS at Week 12,"64 mg QD, Week 12 DB",7/54
same,Change from Baseline LS Mean: 3-Factor General Psychopathology Subscale Score,"64 mg QD, Week 12 DB",−2.58
same,Change from Baseline LS Mean: 3-Factor Negative Subscale Score,"64 mg QD, Week 12 DB",−3.82
same,Change from Baseline LS Mean: 3-Factor Positive Subscale Score,"64 mg QD, Week 12 DB",0.36
same,Change from Baseline LS Mean: 5-Factor Activation Score (PSM),"64 mg QD, Week 12 DB",−0.17
same,Change from Baseline LS Mean: 5-Factor Autistic Preoccupation Score (PSM),"64 mg QD, Week 12 DB",−1.21
same,Change from Baseline LS Mean: 5-Factor Dysphoric Mood Score (PSM),"64 mg QD, Week 12 DB",−1.04
same,Change from Baseline LS Mean: 5-Factor Positive Score (PSM),"64 mg QD, Week 12 DB",−0.25
same,Change from Baseline LS Mean: NSFS (post-hoc),"64 mg QD, Week 12 DB",−3.9
same,Change from Baseline LS Mean: PANSS Negative Factor Score (pentagonal structure model),"64 mg QD, Week 12 DB",−3.50
same,Change from Baseline LS Mean: PANSS Total Score,"64 mg QD, Week 12 DB",−5.83
same,Effect Size vs Placebo: 3-Factor General Psychopathology Subscale Score,"64 mg QD, Week 12 DB",0.56
same,Effect Size vs Placebo: 3-Factor Negative Subscale Score,"64 mg QD, Week 12 DB",0.70
same,Effect Size vs Placebo: 3-Factor Positive Subscale Score,"64 mg QD, Week 12 DB",0.20
same,Effect Size vs Placebo: 5-Factor Activation Score (PSM),"64 mg QD, Week 12 DB",0.49
same,Effect Size vs Placebo: 5-Factor Autistic Preoccupation Score (PSM),"64 mg QD, Week 12 DB",0.22
same,Effect Size vs Placebo: 5-Factor Dysphoric Mood Score (PSM),"64 mg QD, Week 12 DB",0.43
same,Effect Size vs Placebo: 5-Factor Positive Score (PSM),"64 mg QD, Week 12 DB",0.24
same,Effect Size vs Placebo: NSFS (post-hoc),"64 mg QD, Week 12 DB",0.78
same,Effect Size vs Placebo: PANSS Negative Factor Score (pentagonal structure model),"64 mg QD, Week 12 DB",0.57
same,Effect Size vs Placebo: PANSS Total Score,"64 mg QD, Week 12 DB",0.57
same,"PANSS PSM negative factor score, course in OL period",OL period (placebo crossed over) and whole study,trend of improvement continued
